Reference: patent publication US10744214B2, “Method of diagnosing and/or monitoring therapy of atherosclerosis” (STC.UNM, priority 2015, dated 2020)
Entries after “also recorded” stand apart in the source; their conditions may differ.

How the values were obtained:
neutrophils and PBMCs = assay: Radiolabeled DANBIRT uptake in isolated blood components after ozone exposure; assay type: cell-based, rats; settings: rat blood collected 24 hours post-exposure, 1 hour incubation
Experimental: • 6 week old ApoE KO C57 black male • SPECT imaging 3 hrs and 24 hrs post tail vein Injection of ˜700 uCi (˜25.9 Mbq) of ^111In-DANBIRT • Autoradiography was performed 24 hrs PI of ^111In-DANBIRT after the last imaging time point, • We focused on 3 areas for our region of interest analysis: Aortic arch, carotids and thymus: normalized to muscle. • Whole blood incubation with ^68Ga-DANBIRT and subsequent neutrophil and PBMC isolation were performed from rat blood from animals exposed to filtered air and ozone. • 2 groups: Filtered air (n=3) and ozone (n=3) • Whole blood was collected 24 hrs post exposure • Whole Blood Separation was performed after incubation with ^68Ga-DANBIRT, obtaining 4 samples: serum, red blood cells, neutrophils and peripheral blood mononucleated cells. Staining was performed for specific morphology interpretation and smear cell line purity assessment. Results
Rats were exposed to either filtered air (FA) or ozone (1.0 ppm) for 4 hours using an OREC silent are discharge ozone generator (Osmonics, Phoenix, Ariz.); ozone concentrations were continuously monitored over the course of 4 hours. Exposures took place in a chamber without bedding to minimize ozone scrubbing and to ensure consistent nasal exposures. Whole blood was collected 24 hours post-exposure. Histopaque two-step gradient (Sigma Aldrich, 10771) neutrophil isolation protocol was performed following manufacturer's methods; modified protocol was included for PBMC isolation. Hetastarch at 5% (B. Braun, L6511) was added to whole blood before running isolation protocols. Cell samples were washed and suspended in 1% Gelatin in PBS at a pH of 7.2. Final volumes of neutrophil and PBMC samples were increased to 1 mL. Final samples were identified as serum, RBC, neutrophils and PBMCs and incubated for 1 hour with [^68Ga] Ga-DANBIRT (specific activity of 625 mCi/pM). […] Cell morphology, differentials and sample purity were assessed using a light microscope at 40× objective (Olympus BX51).

[1] = In vitro stability of radiolabeled DANBIRT in fetal bovine serum and 0.9% saline; assay type: in vitro ADME; settings: FBS and 0.9% saline, 4 hours
Experimental: Incubation of [^68Ga] Ga-DANBIRT with Fetal Bovine Serum (FBS) (Atlanta Biologicals, S11150) and 0.9% saline solution was performed in vitro stability analysis. Triplicate samples were drawn from radiolabeled stock and kept incubated at 37° C. until time of analysis. ITLC was performed once at each time point and HPLC assessment was performed in triplicates at baseline, 5, 10, 30, 60, 120 and 240 minutes of incubation. The mean incorporation yield and radiochemical purity were calculated from sample results. Following methods by Poria et al methods were modified for use in a Ultra-Performance Liquid Chromatography (UPLC) using an Acquity UPLC BEH C-18 1.7 μm column (2.1×50 mm) (Waters Corporation, 186002350). UPLC gradient with flow rate is described in FIG. 14.

[2] = Ex vivo biodistribution of [111In] In-DANBIRT post tail vein injection in ApoE-/- mice
Experimental: • Animals were imaged for ˜75 minutes 3 hrs post tail vein injection of ˜700 uCi (˜25.9 Mbq) of ^111In-DANBIRT • Atorvastatin was administered in the drinking water and PPAR-Delta agonist (GW1516) was incorporated into food pellets by diet manufacturing company. • Organ and serum collection for bio distribution and lipid levels and sub particles size analysis was performed after last imaging time point
Upon completion of 8 weeks on normal or HFD, mice were euthanized 3 hours post-injection of 700 μCi of [^111In] In-DANBIRT via tail vein; organs were harvested for weight assessment and [^111In] In-DANBIRT uptake using an Automatic Wizard 2 Gamma counter (Perkin Elmer). Organs collected were: tail, whole blood, aorta (from aortic arch to thoracic aorta), carotids (front aortic arch to bifurcation), heart, liver, muscle and adipose tissue. Whole blood was collected with direct cardiac puncture of right ventricle using a 24-gauge needle of right ventricle with a heparinized syringe and centrifuged for 15 minutes at 1000 g at 4° C. Serum, erythrocytes (RBC) and leukocytes (WBC) containing isolated samples were collected and measured for [^111In] In-DANBIRT uptake using a gamma counter. Uptake was decay-corrected and percent-injected activity per gram (% IA/gr) was determined for each mouse.

LFA-1 receptor [3] = target: T1, LFA-1 receptor (Rattus norvegicus, UniProt F1LP44); assay: Radioisotopic dilution / competitive leukocyte binding assay; settings: compared to neutrophil sample, p<0.05
T1 construct: endogenous in cells; host or cells: neutrophils and PBMCs from whole blood of male Sprague Dawley rats
T1 sequence (F1LP44 24-1161): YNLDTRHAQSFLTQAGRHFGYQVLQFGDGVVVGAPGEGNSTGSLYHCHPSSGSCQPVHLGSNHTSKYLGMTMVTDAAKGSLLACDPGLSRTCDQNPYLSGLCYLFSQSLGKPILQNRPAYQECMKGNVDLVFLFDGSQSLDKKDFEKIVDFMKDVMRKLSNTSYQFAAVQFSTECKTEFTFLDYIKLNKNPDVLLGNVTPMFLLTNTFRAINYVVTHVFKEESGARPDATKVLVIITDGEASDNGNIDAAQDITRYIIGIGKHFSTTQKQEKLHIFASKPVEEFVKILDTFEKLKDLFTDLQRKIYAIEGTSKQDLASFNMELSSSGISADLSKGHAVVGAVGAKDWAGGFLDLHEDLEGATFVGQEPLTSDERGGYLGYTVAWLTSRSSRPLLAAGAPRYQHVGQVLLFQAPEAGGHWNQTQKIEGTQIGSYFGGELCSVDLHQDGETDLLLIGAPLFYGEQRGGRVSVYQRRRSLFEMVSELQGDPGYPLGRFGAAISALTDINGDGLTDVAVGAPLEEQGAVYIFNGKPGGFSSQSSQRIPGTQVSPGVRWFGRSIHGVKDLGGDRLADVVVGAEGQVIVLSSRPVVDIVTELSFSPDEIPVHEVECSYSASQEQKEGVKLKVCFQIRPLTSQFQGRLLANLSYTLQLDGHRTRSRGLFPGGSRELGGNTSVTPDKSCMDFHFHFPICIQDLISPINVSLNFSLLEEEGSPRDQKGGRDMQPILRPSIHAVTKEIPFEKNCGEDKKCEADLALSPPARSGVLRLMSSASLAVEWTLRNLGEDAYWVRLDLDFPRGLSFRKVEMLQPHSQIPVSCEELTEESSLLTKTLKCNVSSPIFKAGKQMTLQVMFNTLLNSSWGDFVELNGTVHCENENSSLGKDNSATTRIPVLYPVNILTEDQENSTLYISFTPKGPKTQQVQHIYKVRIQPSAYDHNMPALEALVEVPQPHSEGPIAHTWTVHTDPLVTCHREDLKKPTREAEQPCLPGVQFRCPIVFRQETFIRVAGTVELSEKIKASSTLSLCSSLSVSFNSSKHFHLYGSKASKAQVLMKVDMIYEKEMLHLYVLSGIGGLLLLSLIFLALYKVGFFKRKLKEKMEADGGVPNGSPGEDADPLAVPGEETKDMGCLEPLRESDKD
Experimental: (§1) Radioisotopic dilution methods were performed with log-fold serial dilutions at concentrations of 1:1, 1:10, 1:100 and 1:1000 radiolabeled DANBIRT. Rat whole blood was collected and incubated for 10 minutes with [^111In] In-DANBIRT. Leukocyte isolation was performed for neutrophil and PBMC separations post-incubation with radiolabeled DANBIRT (specific activity 625 mCi/pM). Cytospin 2 (Shandon 2,59900002) with double-funnel and white filter (Simport, 930941126) was used for clustered cell differentials identification methods. Cytospin samples were spread in Superfrost Plus slides (VWR, 48311-703) and fixed with […]. Wright-Giemsa horizontal staining protocol was performed according to manufacturer's package insert instructions (Sigma Aldrich, SLBN4704V). Cell morphology, differentials and sample purity were assessed using a light microscope at 40× objective (Olympus BX51).

LFA-1 receptor [4] = assay: as above; parameters: species or system Rat; settings: serum, RBC and PBMC samples
Experimental: as §1

LFA-1 [5] = target: T2, LFA-1 (Mus musculus, UniProt P24063); assay: 3 hr [111In] In-DANBIRT SPECT/CT imaging of ApoE-/- mice; assay type: in vivo; settings: HFD fed mice, 3 hr post injection, baseline, 4th and 8th week, normalized to muscle
T2 construct: presence of inflammatory LFA-1 in immune and cardiovascular tissues; from tissue; host or cells: living or euthanized male ApoE-/- C57BL/6 mice: heart, aortic arch, descending aorta, carotids, thymus
T2 sequence (P24063 24-1162): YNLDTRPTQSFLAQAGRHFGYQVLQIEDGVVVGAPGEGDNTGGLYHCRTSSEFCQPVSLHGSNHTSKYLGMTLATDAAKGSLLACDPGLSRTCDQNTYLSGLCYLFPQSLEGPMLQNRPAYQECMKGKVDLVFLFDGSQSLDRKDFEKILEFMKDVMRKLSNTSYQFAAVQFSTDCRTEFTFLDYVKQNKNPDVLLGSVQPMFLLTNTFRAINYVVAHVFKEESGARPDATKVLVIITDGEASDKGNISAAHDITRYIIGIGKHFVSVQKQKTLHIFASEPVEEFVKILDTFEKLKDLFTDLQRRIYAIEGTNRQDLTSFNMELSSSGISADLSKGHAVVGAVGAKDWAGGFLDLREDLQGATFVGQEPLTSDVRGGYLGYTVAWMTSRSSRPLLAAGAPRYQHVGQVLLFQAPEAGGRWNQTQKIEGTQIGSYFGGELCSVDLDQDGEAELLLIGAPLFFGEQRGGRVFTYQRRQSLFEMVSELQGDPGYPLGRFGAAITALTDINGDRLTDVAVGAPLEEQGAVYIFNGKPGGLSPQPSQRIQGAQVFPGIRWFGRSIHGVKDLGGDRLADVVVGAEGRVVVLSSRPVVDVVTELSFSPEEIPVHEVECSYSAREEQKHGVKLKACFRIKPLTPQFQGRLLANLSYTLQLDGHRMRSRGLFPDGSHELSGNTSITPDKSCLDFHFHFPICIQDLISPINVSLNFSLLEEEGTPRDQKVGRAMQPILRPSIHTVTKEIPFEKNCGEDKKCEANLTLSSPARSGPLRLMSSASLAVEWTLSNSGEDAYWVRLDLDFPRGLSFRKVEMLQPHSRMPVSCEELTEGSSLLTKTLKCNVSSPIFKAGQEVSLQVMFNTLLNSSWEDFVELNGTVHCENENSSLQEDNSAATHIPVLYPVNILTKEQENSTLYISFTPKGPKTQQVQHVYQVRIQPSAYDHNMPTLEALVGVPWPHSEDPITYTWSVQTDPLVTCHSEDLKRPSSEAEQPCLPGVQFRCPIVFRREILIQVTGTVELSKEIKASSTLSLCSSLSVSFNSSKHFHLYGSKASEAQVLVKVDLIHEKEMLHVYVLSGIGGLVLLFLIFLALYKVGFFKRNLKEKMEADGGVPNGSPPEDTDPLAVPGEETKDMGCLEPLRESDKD
T2 sequence (P11835 24-771 partner): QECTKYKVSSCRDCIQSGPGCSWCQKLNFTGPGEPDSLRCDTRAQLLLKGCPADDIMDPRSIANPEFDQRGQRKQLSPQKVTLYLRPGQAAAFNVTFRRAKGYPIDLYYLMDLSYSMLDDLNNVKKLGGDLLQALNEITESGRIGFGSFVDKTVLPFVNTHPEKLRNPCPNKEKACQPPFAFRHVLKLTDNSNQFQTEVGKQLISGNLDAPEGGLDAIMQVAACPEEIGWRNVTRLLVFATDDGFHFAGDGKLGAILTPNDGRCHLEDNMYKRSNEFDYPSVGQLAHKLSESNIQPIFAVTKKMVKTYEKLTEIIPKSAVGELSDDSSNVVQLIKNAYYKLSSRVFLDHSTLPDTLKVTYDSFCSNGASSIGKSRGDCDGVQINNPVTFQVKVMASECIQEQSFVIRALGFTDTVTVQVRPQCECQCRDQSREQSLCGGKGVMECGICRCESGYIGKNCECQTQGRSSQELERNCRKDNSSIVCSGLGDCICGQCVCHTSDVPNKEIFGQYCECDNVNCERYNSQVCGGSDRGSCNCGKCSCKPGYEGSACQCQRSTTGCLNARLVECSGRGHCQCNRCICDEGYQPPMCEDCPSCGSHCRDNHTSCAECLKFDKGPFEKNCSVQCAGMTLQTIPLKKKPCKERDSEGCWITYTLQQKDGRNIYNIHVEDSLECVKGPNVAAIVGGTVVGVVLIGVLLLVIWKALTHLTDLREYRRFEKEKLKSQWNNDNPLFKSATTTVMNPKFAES
Experimental: (§2) Methods: 6 week ApoE […] mice were fed either normal or high fat chow (n=8 per group) for 8 weeks to induce vascular atherosclerotic lesions. SPECT/CT imaging was performed 3-hrs post injection of ˜700 uCi of ^111In-DANBIRT at baseline, 4 weeks and 8 weeks. Whole body Autoradiography was performed 24-hrs post injection after 8-week time point. Image processing and analysis was performed by region of interest (ROI) determination in relationship to voxel and volume, uptake quantification was normalized to muscle uptake. Blood partition assays were conducted to ascertain specific binding components. […]
Animals were imaged at […] following 700 μCi via tail vein injection of [^111In] […] Regions of Interests (ROI) were determined and drawn using the best quality image phantom from reconstructed CT (Table 3) to determine muscle, adipose, heart, aortic arch and descending aorta organs using VivoQuant 2.00 (inviCRO, Boston, Mass.). […] Concentration and sum per volume normalized to muscle was determined to identify accurate measurements and eliminate ROI signal interference from adjacent tissues. […]

LFA-1 [6] = target: T2, LFA-1; assay: 24 hr [111In] In-DANBIRT 3D autoradiography of ApoE-/- mice; assay type: in vivo
Experimental: as §2
Mice were euthanized by CO2 method after 8 weeks of dietary assessment. […] Autoradiography and white light files were compiled and analyzed using VivoQuant 2.00 (inviCRO, Boston, Mass.). Determined ROI were drawn using the best quality image phantom from reconstructed CT (FIG. 14, Table 3) for the thymus, muscle, carotids and aortic arch. […]

[7] = 8 weeks of diet, 3 hours post-injection, p<0.05

| uptake in RBC and WBC samples, HFD vs normal diet [2, 7] | % IA/gr of tissue, HFD vs normal diet ([2]; 8 weeks of diet, p<0.05) | uptake in adipose tissue and muscle ([2]; 3 hours post-injection) | uptake in serum compared to other blood components ([2]; 3 hours post-injection of 700 μCi) | uptake in liver compared to other tissues ([2]; 3 hours post-injection of 700 μCi, regardless of dietary treatment) | organ bio distribution uptake in liver, serum, aorta and blood components ([2]; Example 2, 1st cohort) | saturation in PBMCs at different dilution concentrations (LFA-1 receptor [3]) | decrease of initial uptake after each log fold dilution concentration (LFA-1 receptor [4]) | uptake in heart, aortic arch and descending aorta ROI (SPECT/CT) (LFA-1 [5]; listed as 111In-DANBIRT) | uptake in the thymus (LFA-1 [6]; Example 1, autoradiography and SPECT/CT analysis) | SMILES | uptake in PBMCs post-ozone exposure (neutrophils and PBMCs) | uptake in serum post-ozone exposure (neutrophils and PBMCs) | uptake in neutrophils post 4-hour ozone exposure vs filtered air (neutrophils and PBMCs; p=0.008) | stability on incubation [1] | uptake in cardiovascular tissues (heart, aorta, carotids), HFD vs normal diet [2, 7] | uptake in heart, aortic arch and descending aorta ROI (SPECT/CT) (LFA-1 [5]) | uptake in carotids and thymus, concentration per volume normalized to muscle, HFD vs normal diet (LFA-1 [6]; 24 hr post injection after 8 weeks of diet) |
| --- | --- | --- | --- | --- | --- | --- | --- | --- | --- | --- | --- | --- | --- | --- | --- | --- | --- |
|  |  |  |  |  |  |  |  |  |  | C[C@]1(Cc2ccc(Br)cc2)C(=O)N(c2cc(Cl)cc(Cl)c2)C(=O)N1CCCCNC(=O)CN1CCN2CCN3CCN(CC1)CC(=O)[O][68Ga]([O]C(=O)C2)[O]C(=O)C3 [[^68Ga] Ga-DANBIRT] | decreased uptake; also recorded: decrease | decrease | increased uptake |  |  |  |  |
| increased uptake | increase | low uptake | high uptake | high uptake | significant uptake | did not evidence any saturation levels | 50% | longitudinal increase in uptake | Increased uptake | C[C@]1(Cc2ccc(Br)cc2)C(=O)N(c2cc(Cl)cc(Cl)c2)C(=O)N1CCCCNC(=O)CN1CCN2CCN3CCN(CC1)CC(=O)[O][111In]([O]C(=O)C2)[O]C(=O)C3 [[^111In] In-DANBIRT] |  |  |  | maintained throughout 4 hours of incubation | higher uptake | longitudinal increased uptake; also recorded: Increased longitudinal uptake | increase; also recorded: Increased uptake |
